`Cc1c(-c2nnn[nH]2)oc2c(c1=O)CSc1ccccc1-2`: the melting point lay within 247 to 248 °C.
`O=C(OCc1ccccc1)C1C(=O)N(Cc2ccc(Cl)c(Cl)c2)C(=O)c2cccn21` (stereo not drawn) displayed a melting point of 104 to 106 °C.
`Cc1nc(C)n(CCOCC2=C(C(=O)OC(C)C)C(c3ccccc3Cl)C(C(=O)Nc3ccccn3)=CN2)c1C` (stereo not drawn): the melting point is 180 to 182 °C.
`Fc1ccc(-c2cc(C(S)(C(F)(F)F)C(F)(F)F)[nH]c2-c2ccc(F)cc2)cc1`: the melting point fell in the range of 114 to 115 °C.
Compound `COc1ccc2c(Cc3c(Cl)cncc3Cl)nnc(N3CCOCC3)c2c1` came in with a melting point of 179 to 180 °C.
On to `CN1CCN(C(=O)Nc2ccc3c(c2)NC(=O)/C3=C\c2ccc[nH]2)C1=O`, for which the melting point was 267 to 272 °C.
In turn, `CN(C)c1cccc2c1OC1(CC1)C2=O` had a melting point of 68.3 °C.
The compound `O=C(Nc1ccc(Cl)cc1)NC(c1ccccc1)C(O)c1ccccc1` (stereo not drawn) gave a melting point of 198 °C.
With `O=C(Cc1ncccn1)c1ccc(F)cc1F`, the melting point fell in the range of 86 to 88 °C.
Take `O=C1c2ccccc2C(=O)N1C/C=C/COc1ccc(-n2ccnc2)cc1`: the melting point lay within 170 to 171 °C.
`COc1ccc(-n2nc(C(F)(F)F)nc2-c2ccc(S(C)(=O)=O)cc2)cc1` displayed a melting point of 156 °C.
`FC(F)(F)c1ccc(C=Cc2nc(CNc3ccc(OCCCn4ccnn4)cc3)co2)cc1`: the melting point lay in the range of 134 to 136 °C.
The value for `O=C(Nc1c[nH]nc1C(=O)NCCc1cccnc1)c1ccccn1` was 267 to 268 °C; that for `CNC(=O)c1cccc(Nc2nc(Nc3ccc4c(c3)C(C)(C)CCC(=O)N4)ncc2Cl)c1` was 184 °C.
As to `CCCc1c(OCCCCc2ccc3c(Cl)c(OC)c(OC)c(Cl)c3c2)ccc(C(=O)OCc2ccccc2)c1O`, the melting point lay in the range of 66 to 68 °C.
With `CC(=O)n1ccc(O)n1`, the melting point was found to be 191 °C.
As for `O=c1[nH]c2cc(Cl)ccc2c(O)c1-c1cccc(I)c1`, the figure is above 350 °C.
`CC(=O)C1CCC2C3CCC4CC=CCC4(C)C3C(OC(=O)CI)CC12C` (stereo not drawn) came in with a melting point of 127 to 129 °C.
`COc1ccc(-c2cc3c(s2)c(=O)c(S(C)=O)cn3C)cc1` (stereo not drawn): the melting point fell in the range of 262 to 264 °C.
`COCN1C(C)=C(C(=O)OC)C(c2ccccc2C(F)(F)F)C(C(=O)OCOC(=O)C(C)(C)C)=C1C` (single isomer, unassigned; (+)) had a melting point of 110 to 112 °C.
On to `COCCc1nc2c(N)nc3ccccc3c2n1CC1(O)CCCCC1`, for which the melting point lay within 189 to 191 °C.
`CNC(=O)c1c(NC(=O)c2cc(C(F)(F)F)nn2-c2ncccc2Cl)ccc2ncccc12` registered a melting point of 210 to 211 °C.
The value for `CCC(C)(C)OC(=O)NC(C)(Cc1c[nH]c2ccccc12)C(=O)NCCc1ccc(Cl)cc1` (stereo not drawn) was 150 to 153 °C; that for `O=C(Nc1ccc(F)cc1F)C1c2ccccc2COc2ccc(Br)cc21` (stereo not drawn) was 189 to 191 °C.
`CCN(CC)CCCCNc1ncc2c(n1)N(C1CC1)C(=O)N(c1c(F)c(OC)cc(OC)c1F)C2` had a melting point of 139 to 141 °C.
In the case of `CCCCCCCCC(=S)n1c(-c2cscn2)nc2ccccc21`, the melting point is 58 to 59 °C.
In the case of `O=C(Nc1cccc(Cl)c1)N1CCN(C(=O)c2ccc(Nc3ccnc4cc(C(F)(F)F)ccc34)cc2)CC1`, the melting point is 266 to 268 °C.
The value for `NCc1ccc2cc(O)ccc2c1` was 188 to 192 °C; that for `CN1CN(C(=O)c2c(F)cccc2F)C(=O)N(c2ccc(SC(F)(F)F)cc2F)C1` was 92 to 94 °C; that for `Cn1cc(C2=C(c3cn(CCCNc4ncccc4[N+](=O)[O-])c4ccccc34)C(=O)NC2=O)c2ccccc21` was 218 to 220 °C.
In the case of `CC12CCC(C(=O)O)=CC1=CCC1C2CCC2(C)C(C(=O)N(C(=O)NC3CCCCC3)C3CCCCC3)CCC12` (stereo not drawn), the melting point fell in the range of 253 to 255 °C.
In turn, `O=C(Nc1ccc(C(=O)c2ccccc2)cc1)c1cc(Cl)cc(Cl)c1` displayed a melting point of 219 to 220 °C.
In turn, `COC(=O)c1c(C)cc(O)c(Cl)c1O` gave a melting point of 122 to 125 °C.
Regarding `CC12CCC(OC(=O)c3ccccc3)CC1=CCC1C2CCC2(C)C(=NO)CCC12` (stereo not drawn), the melting point was in the range of 165 to 170 °C.
Compound `CS(=O)(=O)c1ccc(-c2[nH]c(I)cc2-c2ccc(F)cc2)cc1` had a melting point of 229 to 231 °C.
As for `O=C1N(C(c2ccccc2)c2ccccc2)c2cccc(F)c2C12COc1cc3c(cc12)OCCO3` (stereo not drawn), the figure is 196 to 198 °C; as for `CC(F)(F)c1cccc(C(=O)O)c1`, 96 to 97 °C; as for `COc1ccccc1N1CCN(C[C@@H](O)CN)CC1`, 76 to 80 °C.
As for `COc1cccc2c1nc(C(F)F)n2-c1nc(N2CCOCC2)nc(N(C)c2cncnc2)n1`, the figure is 214 to 217 °C.
Take `COC(=O)C1C=CCN2C(=O)C(CCI)(Cc3ccccc3)C(=O)N12` (stereo not drawn): the melting point was 90 to 92 °C.
In the case of `CCOC(=O)c1cc(-c2ccc(Br)cc2)n(-c2ccc(S(C)(=O)=O)cc2)n1`, the melting point came out at 176 °C.
The value for `OCc1ccc(OCc2ccccc2)cc1OCc1ccccc1` was 84 to 85 °C; that for `O=C(Nc1noc2ccccc12)N1CCN(c2nc(-c3ccccc3)ns2)CC1` was 234 to 235 °C; that for `CON1CCC2(CC1)C(O)=C(c1c(C)cc(C)cc1C)C(=O)N2O` was 152 to 154 °C.
For the compound `CO[C@@H](C(=O)N[C@H]1CC[C@@H](OC(=O)Cc2ccc(Cl)c(Cl)c2)CNC1=O)[C@H](O)[C@@H](O)[C@H](O)/C=C/C(C)(C)C`, the melting point was 132 to 136 °C.
Take `Cc1sc(-c2ccccc2)nc1COc1cc(COc2ncccc2C=O)on1`: the melting point was 123 to 124 °C.
`O=C1NNC(c2ccc3c(c2)CC2(CCN(C4CCC4)CC2)O3)C2C=C12` (stereo not drawn) gave a melting point of 189 to 191 °C.
`CCNc1nc(C)c(-c2ccnc(Nc3ccc(N4CCN(C(C)=O)CC4)cc3)n2)s1` returned a melting point of 208 to 209 °C.
`CCOC(=O)c1nnc(N2N=C(c3ccc([N+](=O)[O-])c(C)c3)c3cc4c(cc3C[C@H]2C)OCO4)s1` showed a melting point of 115 to 118 °C.
Compound `CS(=O)(=O)c1ccc(C(CC2CCCC2)C(=O)Nc2nccs2)cc1` (stereo not drawn) returned a melting point of 61 to 63 °C.
In turn, `Fc1ccc(-c2ccc3c(c2)C2(CCCCC2)C(=NOCc2ccccc2)N3)cc1` gave a melting point of 205 to 208 °C.
With `CCN1C(=O)C(C)(C)C(=O)N(C)c2cc(CN(CCn3ccc4oc(C)cc4c3=O)Cc3cncnc3)ccc21`, the melting point was 146 to 148 °C.
As for `CCc1nccn1-c1nc(-c2ccc(Cl)cc2)c(CCC(=O)O)o1`, the figure is 197 to 199 °C; as for `CCCCCCCN(CCN1CCN(CCSc2nc3cccc(C(=O)OC)c3o2)CC1)C(=O)Nc1c(C(C)C)cccc1C(C)C`, 125 to 126 °C; as for `COc1ccc(-c2nnc(NC3CCN(Cc4ccccc4)CC3)c3cc(OC)cc(OC)c23)cc1`, 168 °C.
The value for `COC(=O)C(Cc1ccc(OCCc2nc(-c3ccccc3)oc2C)cc1)C(=O)O` (stereo not drawn) was 126 to 127 °C.
`O=C(Oc1ccc(Cl)cc1)n1c2c(c(=O)n(C3CCCCO3)c1=O)CCC2` (stereo not drawn): the melting point is 126 °C.
With `CC(CCNC1=Nc2ccc(Br)c3cccc1c23)n1ccnc1` (stereo not drawn), the melting point was in the range of 240 to 241 °C.

Usually melting point stands for the temperature of the solid-liquid transition.

The values above are taken from a melting point compilation (Tetko et al.; mined from patent text by program, amines drawn as free bases though some values may be those of a salt).
